Data on 30 molecules can be found in patent US20240166652A1, “MODULATORS OF THE INTEGRATED STRESS PATHWAY” (Calico Life Sciences LLC, priority 2017, published 2024).

pEC50: −log10 of the molar value.

In this experiment the test system is ATF4 luciferase reporter in HEK293T cells. Kind of experiment: ATF4-Luc assay (ATF4 luciferase reporter, tunicamycin-treated HEK293T cells). The class given is cell-based, human. The note with it: Homo sapiens, HEK-293T; HEK293T cells carrying the ATF4 luciferase reporter, 1 μg/mL tunicamycin, 7 hours. For orientation: In a reporter assay the amount or activity of a reporter protein is the signal.

For `O=C(COc1ccc(Cl)c(F)c1)NC12CCCC(NC(=O)OCc3ccccc3)(C1)C2` [Compound 181, benzyl {5-[2-(4-chloro-3-fluorophenoxy)acetamido]bicyclo[3.1.1]heptan-1-yl}carbamate], the negative logarithm of the EC50 (pEC50) is less than 5.70.

Consider `O=C(COc1ccc(Cl)c(F)c1)NC12CCC(NC(=O)COc3cnn(CC(F)(F)F)c(=O)c3)(CC1)C(=O)C2` [Compound 317, 2-(4-chloro-3-fluorophenoxy)-N-[3-oxo-4-(2-{[6-oxo-1-(2,2,2-trifluoroethyl)-1,6-dihydropyridazin-4-yl]oxy}acetamido)bicyclo[2.2.2]octan-1-yl]acetamide], for which the negative logarithm of the EC50 (pEC50) was less than 5.70.

Regarding `O=C(COc1ccc(F)c(C(F)(F)F)c1)NC12CCC(NC(=O)COc3ccc(C(F)(F)F)c(F)c3)(CC1)[C@@H](O)C2` [Compound 822, 2-[3-fluoro-4-(trifluoromethyl)phenoxy]-N-[(2S)-4-{2-[4-fluoro-3-(trifluoromethyl)phenoxy]acetamido}-2-hydroxybicyclo[2.2.2]octan-1-yl]acetamide], the pEC50 was more than 8.00.

As for `O=C(COc1ccc2c(c1)OCCO2)NC12CCC(NC(=O)COc3ccc(Cl)c(F)c3)(CC1)[C@@H](O)C2` [Compound 758, 2-(4-chloro-3-fluorophenoxy)-N-[(2S)-4-{2-[(2,3-dihydro-1,4-benzodioxin-6-yl)oxy]acetamido}-2-hydroxybicyclo[2.2.2]octan-1-yl]acetamide], the pEC50 was more than 8.00.

In the case of `O=C(COCc1ccc(Cl)cc1)NC12CC(NC(=O)COc3ccc(Cl)c(F)c3)(C1)C2` [Compound 130, 2-(4-chloro-3-fluorophenoxy)-N-(3-{2-[(4-chlorophenyl)methoxy]acetamido}-bicyclo[1.1.1]pentan-1-yl)acetamide], the negative-log EC50 (pEC50) is 7.30 to 8.00.

On to `Cc1ccccc1CS(=O)(=O)NC12CC(NC(=O)COc3ccc(Cl)c(F)c3)(C1)C2` [Compound 482, 2-(4-chloro-3-fluorophenoxy)-N-(3-{[(2-methylphenyl)methanesulfonyl]amino}bicyclo[1.1.1]pentan-1-yl)acetamide], for which the pEC50 was less than 5.70.

Take `O=C(COc1ccc(F)cc1)NC12CCC(NC(=O)COc3ccc(Cl)c(F)c3)(CC1)C(O)C2` (stereo not drawn) [Compound 330, 2-(4-chloro-3-fluorophenoxy)-N-{4-[2-(4-fluorophenoxy)acetamido]-2-hydroxybicyclo[2.2.2]octan-1-yl}acetamide]: the pEC50 was more than 8.00.

As for `O=C(COc1ccc(Cl)c(F)c1)NC12CCC(NC(=O)COc3ccc(Cl)nn3)(CC1)[C@@H](O)C2` [Compound 518, 2-(4-chloro-3-fluorophenoxy)-N-[(3S)-4-{2-[(6-chloropyridazin-3-yl)oxy]acetamido}-3-hydroxybicyclo[2.2.2]octan-1-yl]acetamide], the pEC50 is 7.30 to 8.00.

As to `O=C(COc1ccc(Cl)c(F)c1)NC12CCC(NC(=O)COc3ccc(Cl)c(F)c3)(CC1)C(NCC(F)(F)F)C2` (stereo not drawn) [Compound 714, N,N′-{2-[(2,2,2-trifluoroethyl)amino]bicyclo[2.2.2]octane-1,4-diyl}bis[2-(4-chloro-3-fluorophenoxy)acetamide]], the pEC50 is 7.30 to 8.00.

On to `N#Cc1ccc(COCC(=O)NC23CC(NC(=O)COc4ccc(Cl)c(F)c4)(C2)C3)cn1` [Compound 283, 2-(4-chloro-3-fluorophenoxy)-N-(3-{2-[(6-cyanopyridin-3-yl)methoxy]acetamido}bicyclo[1.1.1]pentan-1-yl)acetamide], for which the negative-log EC50 (pEC50) is 5.70 to 6.30.

Turning to `Cc1ccc(OCC(=O)NC23CCC(NC(=O)COc4ccc(Cl)c(F)c4)(CC2)[C@@H](O)C3)cc1F` [Compound 737, 2-(4-chloro-3-fluorophenoxy)-N-{(2S)-4-[2-(3-fluoro-4-methylphenoxy)acetamido]-2-hydroxybicyclo[2.2.2]octan-1-yl}acetamide], the pEC50 was more than 8.00.

For `O=C(COc1ccc(Cl)c(F)c1)NC12CCC(NC(=O)COc3ccc(Cl)c(F)c3)(CC1)[C@@H](c1nn[nH]n1)C2` [Compound 419, N,N′-[(2S)-2-(2H-tetrazol-5-yl)bicyclo[2.2.2]octane-1,4-diyl]bis[2-(4-chloro-3-fluorophenoxy)acetamide]], the pEC50 is 6.60 to 7.30.

`Cc1ccc(OCC(=O)NC23CC(NC(=O)COc4ccc(Cl)c(F)c4)(C2)C3)c(N)n1` [Compound 229, 2-[(2-amino-6-methylpyridin-3-yl)oxy]-N-{3-[2-(4-chloro-3-fluorophenoxy)acetamido]bicyclo[1.1.1]pentan-1-yl}acetamide]: the negative-log EC50 (pEC50) was 5.70 to 6.30.

On to `O=C(COc1ccc(Cl)c(Cl)c1)NC12CC(NCC(O)c3ccc(Cl)cc3)(C1)C2` (stereo not drawn) [Compound 288, N-(3-{[2-(4-chlorophenyl)-2-hydroxyethyl]amino}bicyclo[1.1.1]pentan-1-yl)-2-(3,4-dichlorophenoxy)acetamide], for which the pEC50 is 6.60 to 7.30.

For `O=C(COc1ccc(Cl)c(F)c1)NC12CC(NC(=O)Cc3ccccn3)(C1)C2` [Compound 448, 2-(4-chloro-3-fluorophenoxy)-N-{3-[2-(pyridin-2-yl)acetamido]bicyclo[1.1.1]pentan-1-yl}acetamide], the pEC50 is less than 5.70.

With `O=C(COc1ccc(S(F)(F)(F)(F)F)cc1)NC12CC(NC(=O)COc3ccc4c(c3)OC(F)(F)O4)(C1)C2` [Compound 278, 2-[(2,2-difluoro-2H-1,3-benzodioxol-5-yl)oxy]-N-(3-{2-[4-(pentafluoro-λ^6-sulfanyl)phenoxy]acetamido}bicyclo[1.1.1]pentan-1-yl)acetamide], the negative-log EC50 (pEC50) was 7.30 to 8.00.

For `O=C(COc1ccc(Cl)c(F)c1)NC12CC(NS(=O)(=O)CCOc3ccc(F)cc3)(C1)C2` [Compound 489, 2-(4-chloro-3-fluorophenoxy)-N-(3-{[2-(4-fluorophenoxy)ethanesulfonyl]amino}bicyclo[1.1.1]pentan-1-yl)acetamide], the pEC50 was 5.70 to 6.30.

Regarding `O=C(O)CN(CCCOc1ccc(Cl)c(F)c1)C12CC(NC(=O)COc3ccc(Cl)c(F)c3)(C1)C2` [Compound 687, ({3-[2-(4-chloro-3-fluorophenoxy)acetamido]bicyclo[1.1.1]pentan-1-yl}[3-(4-chloro-3-fluorophenoxy)propyl]amino)acetic Acid], the negative logarithm of the EC50 (pEC50) was 5.70 to 6.30.

Take `O=C(COc1ccc(Cl)c(F)c1)NC12CC(NC(=O)Cc3cc(F)cc(F)c3)(C1)C2` [Compound 491, 2-(4-chloro-3-fluorophenoxy)-N-{3-[2-(3,5-difluorophenyl)acetamido]bicyclo[1.1.1]pentan-1-yl}acetamide]: the pEC50 is less than 5.70.

As to `O=C(COc1ccc(F)c(F)c1)NC12CCC(NC(=O)COc3ccc(Cl)c(F)c3)(CC1)[C@@H](O)C2` [Compound 586, 2-(4-chloro-3-fluorophenoxy)-N-{(2S)-4-[2-(3,4-difluorophenoxy)acetamido]-2-hydroxybicyclo[2.2.2]octan-1-yl}acetamide], the pEC50 was more than 8.00.

On to `O=C(COc1ccc(Cl)c(F)c1)NC12CC(NC(=O)COc3ccccc3F)(C1)C2` [Compound 411, 2-(4-chloro-3-fluorophenoxy)-N-{3-[2-(2-fluorophenoxy)acetamido]bicyclo[1.1.1]pentan-1-yl}acetamide], for which the negative-log EC50 (pEC50) is 7.30 to 8.00.

`O=C(COc1cccc(F)c1)NC12CCC(NC(=O)COc3cccc(F)c3)(CC1)[C@@H](O)C2` [Compound 549, N,N′-[(2S)-2-hydroxybicyclo[2.2.2]octane-1,4-diyl]bis[2-(3-fluorophenoxy)acetamide]]: the pEC50 was 6.60 to 7.30.

As for `N#Cc1ccc(CNC23CCC(NC(=O)COc4ccc(Cl)c(F)c4)(CC2)CC3O)cc1` (stereo not drawn) [Compound 343, 2-(4-chloro-3-fluorophenoxy)-N-(4-{[(4-cyanophenyl)methyl]amino}-3-hydroxybicyclo[2.2.2]octan-1-yl)acetamide], the pEC50 was 6.60 to 7.30.

Consider `O=C(COc1ccc(Cl)c(F)c1)NC12CC(NC(=O)COc3ccc(Cl)c(I)c3)(C1)C2` [Compound 260, 2-(4-chloro-3-fluorophenoxy)-N-{3-[2-(4-chloro-3-iodophenoxy)acetamido]-bicyclo[1.1.1]pentan-1-yl}acetamide], for which the pEC50 was more than 8.00.

`O=C(COc1ccccn1)NC12CCC(NC(=O)COc3ccc(Cl)c(F)c3)(CC1)[C@@H](O)C2` [Compound 663, 2-(4-chloro-3-fluorophenoxy)-N-[(2S)-2-hydroxy-4-{2-[(pyridin-2-yl)oxy]acetamido}bicyclo[2.2.2]octan-1-yl]acetamide]: the negative-log EC50 (pEC50) was 7.30 to 8.00.

In the case of `N#CCc1cc(OCC(=O)NC23CC(NC(=O)COc4ccc(Cl)c(F)c4)(C2)C3)ccc1Cl` [Compound 262, 2-[4-chloro-3-(cyanomethyl)phenoxy]-N-{3-[2-(4-chloro-3-fluorophenoxy)acetamido]bicyclo[1.1.1]pentan-1-yl}acetamide], the negative logarithm of the EC50 (pEC50) is 7.30 to 8.00.

Turning to `CC1(O)CC2(NC(=O)COc3ccc(Cl)c(F)c3)CCC1(NC(=O)COc1ccc(C(F)(F)F)nc1)CC2` (stereo not drawn) [Compound 338, 2-(4-chloro-3-fluorophenoxy)-N-[3-hydroxy-3-methyl-4-(2-{[6-(trifluoromethyl)pyridin-3-yl]oxy}acetamido)bicyclo[2.2.2]octan-1-yl]acetamide], the pEC50 is 7.30 to 8.00.

Take `CN(CC(=O)NC12CCC(NC(=O)COc3ccc(Cl)c(F)c3)(CC1)C[C@@H]2O)c1ccc(Cl)cc1` [Compound 656, 2-(4-chloro-3-fluorophenoxy)-N-[(3S)-4-{2-[(4-chlorophenyl)(methyl)amino]acetamido}-3-hydroxybicyclo[2.2.2]octan-1-yl]acetamide]: the pEC50 is 7.30 to 8.00.

`O=C(COc1cnc(C(F)(F)F)nc1)NC12CCC(NC(=O)COc3ccc(Cl)c(F)c3)(CC1)[C@@H](O)C2` [Compound 627, 2-(4-chloro-3-fluorophenoxy)-N-[(2S)-2-hydroxy-4-(2-{[2-(trifluoromethyl)pyrimidin-5-yl]oxy}acetamido)bicyclo[2.2.2]octan-1-yl]acetamide]: the pEC50 is more than 8.00.

Turning to `O=C(COc1ccc(C(F)(F)F)nc1)NC12CC(NC(=O)COc3ccc(C(F)(F)F)nc3)(C1)C2` [Compound 400, N,N′-(bicyclo[1.1.1]pentane-1,3-diyl)bis(2-{[6-(trifluoromethyl)pyridin-3-yl]oxy}acetamide)], the negative logarithm of the EC50 (pEC50) is 6.60 to 7.30.

In general, pEC50 refers to the negative decadic logarithm of the EC50, by convention in mol/L.
